In one assay the target is human recombinant BACE1 (Homo sapiens (Human), UniProt P56817). Nature of the assay: In vitro enzymatic BACE1 FRET assay. To be noted: read-out: IC50 IP (μM) BACE1 enzyme. The assay is classed as biochemical. The essentials: (§1)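 Tris addition raises the pH to neutral to stop the reaction before fluorescence is measured at 590 nm emission with 488 nm excitation.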
For another assay, the target named is human recombinant BACE2 (Homo sapiens (Human), UniProt Q9Y5Z0). The experiment in a line: In vitro enzymatic BACE2 FRET assay. It is filed as biochemical. The following applies: read-out: IC50 IP (μM) BACE2 enzyme. The procedure, abridged:
as §1

In assay [1] the test system is Aβ40 in conditioned medium of cells stably expressing Amyloid Precursor Protein (APP). Nature of the assay: In vitro BACE-1 cell-based assay (Aβ40 sandwich ELISA). The following applies: read-out: IC50 IP (μM) BACE1 cell. The procedure, abridged:
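Read-out: time-resolved fluorescence (Streptavidin-Europium) of Aβ40 captured by pAb40 and detected with biotinylated 6E10 from supernatants of APP-stable cells. Cells were exposed to compound for 24 h, 10-point dose response, top dose 100 μM or 10 μM, 0.1% DMSO. IC50 fitted to percent of control.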

A further assay addresses Recombinant Cat D (Homo sapiens (Human), UniProt P07339). Nature of the assay: In vitro enzymatic Cathepsin D (Cat D) FRET assay. The following applies: read-out: IC50 IP (μM) CatD. The assay is classed as biochemical. The procedure, abridged:
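Fluorescence at 500 nm excitation and 580 nm emission reports cleavage of a quenched fluorophore–quencher peptide (20 nM) by CHO-expressed Cat D. Reactions ran one hour in 0.05 M citrate pH 3.5, 5 mM CHAPS, 10% DMSO final before a Tris stop raised pH to neutrality.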

Read-outs that look alike come from different tables or passages of the source.

Sequence of Recombinant Cat D (P07339 65-412): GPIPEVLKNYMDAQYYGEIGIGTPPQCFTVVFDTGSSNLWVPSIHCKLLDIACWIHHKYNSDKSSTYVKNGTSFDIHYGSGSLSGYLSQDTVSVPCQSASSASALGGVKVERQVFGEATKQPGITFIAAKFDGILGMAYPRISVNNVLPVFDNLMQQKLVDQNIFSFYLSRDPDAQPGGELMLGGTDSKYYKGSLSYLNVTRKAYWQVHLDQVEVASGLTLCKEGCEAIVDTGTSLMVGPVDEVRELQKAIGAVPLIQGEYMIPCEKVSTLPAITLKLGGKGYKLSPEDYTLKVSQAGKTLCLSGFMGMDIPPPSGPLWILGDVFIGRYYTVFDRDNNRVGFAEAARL
Sequence of human recombinant BACE2 (Q9Y5Z0 63-518): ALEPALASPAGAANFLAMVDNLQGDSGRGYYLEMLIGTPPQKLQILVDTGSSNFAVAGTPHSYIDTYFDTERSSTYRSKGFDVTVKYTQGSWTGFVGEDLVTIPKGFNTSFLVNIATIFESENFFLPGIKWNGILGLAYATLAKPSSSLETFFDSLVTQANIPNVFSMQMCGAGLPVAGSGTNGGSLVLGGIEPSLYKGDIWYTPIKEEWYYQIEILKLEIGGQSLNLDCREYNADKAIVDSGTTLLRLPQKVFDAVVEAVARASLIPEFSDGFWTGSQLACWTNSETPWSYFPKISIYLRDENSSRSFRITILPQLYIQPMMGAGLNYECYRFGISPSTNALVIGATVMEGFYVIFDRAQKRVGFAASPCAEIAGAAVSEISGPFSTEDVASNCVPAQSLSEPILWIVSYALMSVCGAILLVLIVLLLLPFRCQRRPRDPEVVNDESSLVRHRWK
Sequence of human recombinant BACE1 (P56817 46-501): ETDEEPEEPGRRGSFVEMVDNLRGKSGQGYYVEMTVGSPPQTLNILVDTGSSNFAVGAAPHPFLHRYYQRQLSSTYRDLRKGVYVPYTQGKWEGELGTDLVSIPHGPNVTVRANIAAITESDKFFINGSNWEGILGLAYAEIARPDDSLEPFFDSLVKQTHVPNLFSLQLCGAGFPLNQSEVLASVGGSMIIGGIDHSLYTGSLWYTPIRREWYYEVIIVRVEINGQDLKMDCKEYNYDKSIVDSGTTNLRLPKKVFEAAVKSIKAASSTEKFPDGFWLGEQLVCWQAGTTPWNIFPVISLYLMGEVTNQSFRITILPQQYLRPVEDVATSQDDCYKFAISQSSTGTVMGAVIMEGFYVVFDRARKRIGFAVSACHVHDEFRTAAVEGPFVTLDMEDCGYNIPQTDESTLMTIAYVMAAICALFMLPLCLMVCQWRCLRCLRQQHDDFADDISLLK

Usually IC50 stands for the concentration that inhibits the measured activity by half. As to `COC[C@]12C[C@H]1[C@@](C)(c1cc(NC(=O)c3ncc(OCc4ncco4)cc3C)ccc1F)N=C(N)S2` [Example 644, N-(3-((1S,5S,6S)-3-amino-1-(methoxymethyl)-5-methyl-2-thia-4-azabicyclo[4.1.0]hept-3-en-5-yl)-4-fluorophenyl)-3-methyl-5-(1,3-oxazol-2-ylmethoxy)-2-pyridinecarboxamide], the IC50 was 0.014 µM at human recombinant BACE1, 0.207 µM on human recombinant BACE2, 0.0137 µM in assay [1] and over 400 µM on Recombinant Cat D.
In the same order, the values of `C#CCOc1cnc2c(Nc3cnc(F)c([C@@]4(C)N=C(N)S[C@@]5(C(F)F)C[C@@H]45)c3)nccc2n1` [Example 653, N-(5-((1S,5S,6S)-3-amino-1-(difluoromethyl)-5-methyl-2-thia-4-azabicyclo[4.1.0]hept-3-en-5-yl)-6-fluoro-3-pyridinyl)-2-(2-propyn-1-yloxy)pyrido[3,4-b]pyrazin-5-amine] are 0.000544 µM, 0.0192 µM, 0.00151 µM and 260 µM.
In the same order, the values of `Cc1cc(NC(=O)c2cnc(OCC(F)(F)F)cn2)cc([C@@]2(C)N=C(N)S[C@@]3(C(F)F)C[C@@H]23)c1F` [Example 1073, N-(3-((1S,5S,6S)-3-amino-1-(difluoromethyl)-5-methyl-2-thia-4-azabicyclo[4.1.0]hept-3-en-5-yl)-4-fluoro-5-methylphenyl)-5-(2,2,2-trifluoroethoxy)pyrazine-2-carboxamide] are 0.000842 µM, 0.0515 µM, 0.00323 µM and 1300 µM.
In the case of `CNC(=O)[C@]12C[C@H]1[C@@](C)(c1cc(NC(=O)c3ccc(Cl)cn3)ccc1F)N=C(N)S2` [Example 985, (1S,5S,6S)-3-amino-5-(5-(5-chloropicolinamido)-2-fluorophenyl)-N,5-dimethyl-2-thia-4-azabicyclo[4.1.0]hept-3-ene-1-carboxamide], the IC50 was 0.000276 µM on human recombinant BACE1, under 0.00203 µM at human recombinant BACE2, 0.000709 µM in assay [1] and 1120 µM on Recombinant Cat D.
On the same counts, the results for `NC1=N[C@](CF)(c2cc(NC(=O)c3ccc(Cl)cn3)ccc2F)[C@@H]2C[C@]2(c2c[nH]nn2)S1` [Example 956, N-(3-((1S,5S,6S)-3-amino-5-(fluoromethyl)-1-(1H-1,2,3-triazol-4-yl)-2-thia-4-azabicyclo[4.1.0]hept-3-en-5-yl)-4-fluorophenyl)-5-chloro-2-pyridinecarboxamide] are 0.000927 µM, under 0.00203 µM, 0.019 µM and 341 µM.
In the same order, the values of `COC[C@H](C)Oc1cnc2c(Nc3cc(F)c(F)c([C@@]4(C)N=C(N)S[C@@]5(C(F)F)C[C@@H]45)c3)nccc2n1` [Example 894, N-(3-((1S,5S,6S)-3-amino-1-(difluoromethyl)-5-methyl-2-thia-4-azabicyclo[4.1.0]hept-3-en-5-yl)-4,5-difluorophenyl)-2-((1S)-2-methoxy-1-methylethoxy)pyrido[3,4-b]pyrazin-5-amine] are 0.00372 µM, 0.464 µM, 0.05 µM and over 133 µM.
In the same order, the values of `C#CCOc1cnc2c(Nc3ccc(F)c([C@@]4(CF)N=C(N)S[C@@]5(C(=O)N(C)C)C[C@H]54)c3)nccc2n1` [Example 779, (1S,5S,6S)-3-amino-5-(fluoromethyl)-5-(2-fluoro-5-((2-(2-propyn-1-yloxy)pyrido[3,4-b]pyrazin-5-yl)amino)phenyl)-N,N-dimethyl-2-thia-4-azabicyclo[4.1.0]hept-3-ene-1-carboxamide] are 0.000728 µM, under 0.00203 µM, 0.00082 µM and over 400 µM.
Turning to `COC[C@]12C[C@H]1[C@@](C)(c1cc(NC(=O)c3cnc(OCc4nc(C)no4)cn3)cc(F)c1F)N=C(N)S2` [Example 1014, N-(3-((1S,5S,6S)-3-amino-1-(methoxymethyl)-5-methyl-2-thia-4-azabicyclo[4.1.0]hept-3-en-5-yl)-4,5-difluorophenyl)-5-((3-methyl-1,2,4-oxadiazol-5-yl)methoxy)-2-pyrazinecarboxamide], the IC50 on human recombinant BACE1 was found to be 0.000879 µM; at human recombinant BACE2 it was 0.192 µM; in assay [1] it was 0.00289 µM; at Recombinant Cat D, 2560 µM.
On the same counts, the results for `COCCOc1cnc2c(Nc3ccc(F)c([C@@]4(CF)N=C(N)S[C@@]5(COC)C[C@H]54)c3)ncnc2c1` [Example 947, N-(3-((1S,5S,6S)-3-amino-5-(fluoromethyl)-1-(methoxymethyl)-2-thia-4-azabicyclo[4.1.0]hept-3-en-5-yl)-4-fluorophenyl)-7-(2-methoxyethoxy)pyrido[3,2-d]pyrimidin-4-amine] are 0.0282 µM, 0.519 µM, 0.0337 µM and 595 µM.
On to `COC[C@]12C[C@H]1[C@@](C)(c1cc(NC(=O)c3cnc(OCCF)cn3)ccc1F)N=C(N)S2` [Example 1052, N-(3-((1S,5S,6S)-3-amino-1-(methoxymethyl)-5-methyl-2-thia-4-azabicyclo[4.1.0]hept-3-en-5-yl)-4-fluorophenyl)-5-(2-fluoroethoxy)-2-pyrazinecarboxamide], for which the IC50 at human recombinant BACE1 was 0.016 µM; on human recombinant BACE2, 0.146 µM; in assay [1], 0.0083 µM; on Recombinant Cat D it was over 400 µM.
Consider `NC1=N[C@](CF)(c2cc(Nc3ncnc4cc(OCc5ncco5)cnc34)ccc2F)[C@@H]2C[C@@H]2S1` [Example 763, N-(3-((1S,5S,6S)-3-amino-5-(fluoromethyl)-2-thia-4-azabicyclo[4.1.0]hept-3-en-5-yl)-4-fluorophenyl)-7-(1,3-oxazol-2-ylmethoxy)pyrido[3,2-d]pyrimidin-4-amine], for which the IC50 on human recombinant BACE1 worked out at 0.00849 µM; on human recombinant BACE2, 0.239 µM; in assay [1], 0.0048 µM; on Recombinant Cat D, 1110 µM.
Take `NC1=N[C@](CF)(c2cc(NC(=O)c3ccc(Cl)cn3)ccc2F)[C@@H]2C[C@]2(CO)S1` [Example 37, N-(3-((1S,5S,6S)-3-amino-5-(fluoromethyl)-1-(hydroxymethyl)-2-thia-4-azabicyclo[4.1.0]hept-3-en-5-yl)-4-fluorophenyl)-5-chloropicolinamide]: the IC50 is 0.00332 µM on human recombinant BACE1 (BACE1 FRET enzyme assay), 0.00161 µM at human recombinant BACE2 (BACE2 FRET enzyme assay), 0.0014 µM in assay [1] (BACE1 cell-based assay) and over 400 µM on Recombinant Cat D (Cathepsin D FRET enzyme assay).
In the same order, the values of `N#Cc1cnc2c(Nc3cc(F)c(F)c([C@@]4(CF)N=C(N)S[C@@]5(CO)C[C@H]54)c3)nccc2c1` [Example 48, 8-((3-((1S,5S,6S)-3-amino-5-(fluoromethyl)-1-(hydroxymethyl)-2-thia-4-azabicyclo[4.1.0]hept-3-en-5-yl)-4,5-fluorophenyl)amino)-7-naphthyridine-3-carbonitrile] are 0.00357 µM, 0.00323 µM, 0.0149 µM and over 400 µM.
With `CNC(=O)[C@]12C[C@H]1[C@@](C)(c1cc(NC(=O)c3ccc(OCC(F)(F)F)cn3)cc(F)c1F)N=C(N)S2` [Example 700, (1S,5S,6S)-3-amino-5-(2,3-difluoro-5-(((5-(2,2,2-trifluoroethoxy)-2-pyridinyl)carbonyl)amino)phenyl)-N,5-dimethyl-2-thia-4-azabicyclo[4.1.0]hept-3-ene-1-carboxamide], the IC50 on human recombinant BACE1 stood at 0.00115 µM; at human recombinant BACE2 it was 0.224 µM; in assay [1], 0.00826 µM; on Recombinant Cat D it was 569 µM.
As to `C#CCOc1cnc(C(=O)Nc2ccc(F)c([C@@]3(CF)N=C(N)S[C@@]4(CO)C[C@H]43)c2)cn1` [Example 53, N-(3-((1S,5S,6S)-3-amino-5-(fluoromethyl)-1-(hydroxymethyl)-2-thia-4-azabicyclo[4.1.0]hept-3-en-5-yl)-4-fluorophenyl)-5-(2-propyn-1-yloxy)-2-pyrazinecarboxamide], the IC50 was 0.00045 µM at human recombinant BACE1 (BACE1 FRET enzyme assay), 0.0156 µM at human recombinant BACE2 (BACE2 FRET enzyme assay), 0.00045 µM in assay [1] (BACE1 cell-based assay) and 349 µM on Recombinant Cat D (Cathepsin D FRET enzyme assay).
On to `COCCNC(=O)/C=C/[C@]12C[C@H]1[C@@](CF)(c1cc(NC(=O)c3ccc(Cl)cn3)ccc1F)N=C(N)S2` [Example 767, N-(3-((1R,5S,6S)-3-amino-5-(fluoromethyl)-1-((E)-3-((2-methoxyethyl)amino)-3-oxoprop-1-en-1-yl)-2-thia-4-azabicyclo[4.1.0]hept-3-en-5-yl)-4-fluorophenyl)-5-chloropicolinamide], for which the half-inhibitory concentration (IC50) was 0.00102 µM at human recombinant BACE1, under 0.00203 µM on human recombinant BACE2, 0.00143 µM in assay [1] and 602 µM on Recombinant Cat D.
In the same order, the values of `CNC(=O)/C=C/[C@]12C[C@H]1[C@@](CF)(c1cc(NC(=O)c3ccc(Cl)cn3)ccc1F)N=C(N)S2` [Example 760, N-(3-((1R,5S,6S)-3-amino-5-(fluoromethyl)-1-((E)-3-(methylamino)-3-oxoprop-1-en-1-yl)-2-thia-4-azabicyclo[4.1.0]hept-3-en-5-yl)-4-fluorophenyl)-5-chloropicolinamide] are 0.000415 µM, under 0.00203 µM, 0.00265 µM and 779 µM.

The values above are taken from patent US20160046618A1, “Cyclopropyl Fused Thiazin-2-Amine Compounds as Beta-Secretase Inhibitors and Methods of Use” (AMGEN INC., priority 2014, published 2016).
